In ChEMBL document CHEMBL3751693, “Synthesis, antimicrobial evaluation and molecular modeling of 5-hydroxyisoquinolinium salt series; the effect of the hydroxyl moiety” (Bioorg Med Chem, 2016):

Tests used:
[1] = tested on: Staphylococcus aureus; assay: Antimicrobial activity against clinical isolate Staphylococcus aureus CCM 451608 after 24 hrs; type: functional; details: CCM 451608, 24 h
[2] = tested on: Staphylococcus aureus; assay: Antimicrobial activity against clinical isolate Staphylococcus aureus CCM 451608 after 48 hrs; type: functional; details: CCM 451608, 48 h
[3] = tested on: Staphylococcus aureus; assay: Antimicrobial activity against clinical isolate methicillin-resistant Staphylococcus aureus H 599608 after 24 hrs; type: functional; details: H 599608, 24 h
[4] = tested on: Staphylococcus aureus; assay: Antimicrobial activity against clinical isolate methicillin-resistant Staphylococcus aureus H 599608 after 48 hrs; type: functional; details: H 599608, 48 h
[5] = tested on: Staphylococcus epidermidis; assay: Antimicrobial activity against clinical isolate Staphylococcus epidermidis H 696608 after 24 hrs; type: functional; details: H 696608, 24 h
[6] = tested on: Staphylococcus epidermidis; assay: Antimicrobial activity against clinical isolate Staphylococcus epidermidis H 696608 after 48 hrs; type: functional; details: H 696608, 48 h
[7] = tested on: Enterococcus sp.; assay: Antimicrobial activity against clinical isolate Enterococcus sp. J 1436508 after 24 hrs; type: functional; details: J 1436508, 24 h
[8] = tested on: Enterococcus sp.; assay: Antimicrobial activity against clinical isolate Enterococcus sp. J 1436508 after 48 hrs; type: functional; details: J 1436508, 48 h
[9] = tested on: Escherichia coli; assay: Antimicrobial activity against clinical isolate Escherichia coli CCM 4517 after 24 hrs; type: functional; details: CCM 4517, 24 h
[10] = tested on: Escherichia coli; assay: Antimicrobial activity against clinical isolate Escherichia coli CCM 4517 after 48 hrs; type: functional; details: CCM 4517, 48 h
[11] = tested on: Klebsiella pneumoniae; assay: Antimicrobial activity against clinical isolate Klebsiella pneumoniae D 1175008 after 24 hrs; type: functional; details: D 1175008, 24 h
[12] = tested on: Klebsiella pneumoniae; assay: Antimicrobial activity against clinical isolate Klebsiella pneumoniae D 1175008 after 48 hrs; type: functional; details: D 1175008, 48 h
[13] = tested on: Klebsiella pneumoniae; assay: Antimicrobial activity against clinical isolate ESBL-Klebsiella pneumoniae J 1436808 after 24 hrs; type: functional; details: J 1436808, 24 h
[14] = tested on: Klebsiella pneumoniae; assay: Antimicrobial activity against clinical isolate ESBL-Klebsiella pneumoniae J 1436808 after 48 hrs; type: functional; details: J 1436808, 48 h
[15] = tested on: Pseudomonas aeruginosa; assay: Antimicrobial activity against clinical isolate Pseudomonas aeruginosa CCM 1961 after 72 hrs; type: functional; details: CCM 1961, 72 h
[16] = tested on: Pseudomonas aeruginosa; assay: Antimicrobial activity against clinical isolate Pseudomonas aeruginosa CCM 1961 after 120 hrs; type: functional; details: CCM 1961, 120 h
[17] = tested on: Candida albicans; assay: Antimicrobial activity against Candida albicans ATCC 44859 after 24 hrs by spectrophotometry; type: functional; details: ATCC 44859, 24 h
[18] = tested on: Aspergillus fumigatus; assay: Antimicrobial activity against Aspergillus fumigatus 231 after 24 hrs by spectrophotometry; type: functional; details: Aspergillus fumigatus, 231, 24 h
[19] = tested on: Candida albicans; assay: Antimicrobial activity against Candida albicans ATCC 44859 after 48 hrs by spectrophotometry; type: functional; details: ATCC 44859, 48 h
[20] = tested on: Candida tropicalis; assay: Antimicrobial activity against Candida tropicalis 156 after 24 hrs by spectrophotometry; type: functional; details: Candida tropicalis, 156, 24 h
[21] = tested on: Candida tropicalis; assay: Antimicrobial activity against Candida tropicalis 156 after 48 hrs by spectrophotometry; type: functional; details: Candida tropicalis, 156, 48 h
[22] = tested on: Pichia kudriavzevii; assay: Antimicrobial activity against Candida krusei E28 after 24 hrs by spectrophotometry; type: functional; details: E28, 24 h
[23] = tested on: Pichia kudriavzevii; assay: Antimicrobial activity against Candida krusei E28 after 48 hrs by spectrophotometry; type: functional; details: E28, 48 h
[24] = tested on: Nakaseomyces glabratus; assay: Antimicrobial activity against Candida glabrata 20/I after 24 hrs by spectrophotometry; type: functional
[25] = tested on: Nakaseomyces glabratus; assay: Antimicrobial activity against Candida glabrata 20/I after 48 hrs by spectrophotometry; type: functional
[26] = tested on: Trichosporon asahii; assay: Antimicrobial activity against Trichosporon asahii 1188 after 24 hrs by spectrophotometry; type: functional; details: Trichosporon asahii, 1188, 24 h
[27] = tested on: Trichosporon asahii; assay: Antimicrobial activity against Trichosporon asahii 1188 after 48 hrs by spectrophotometry; type: functional; details: Trichosporon asahii, 1188, 48 h
[28] = tested on: Aspergillus fumigatus; assay: Antimicrobial activity against Aspergillus fumigatus 231 after 48 hrs by spectrophotometry; type: functional; details: Aspergillus fumigatus, 231, 48 h
[29] = tested on: Lichtheimia corymbifera; assay: Antimicrobial activity against Absidia corymbifera 272 after 24 hrs by spectrophotometry; type: functional; details: Lichtheimia corymbifera, 272, 24 h
[30] = tested on: Lichtheimia corymbifera; assay: Antimicrobial activity against Absidia corymbifera 272 after 48 hrs by spectrophotometry; type: functional; details: Lichtheimia corymbifera, 272, 48 h
[31] = tested on: Trichophyton mentagrophytes; assay: Antimicrobial activity against Trichophyton mentagrophytes 445 after 72 hrs by spectrophotometry; type: functional; details: Trichophyton mentagrophytes, 445, 72 h
[32] = tested on: Trichophyton mentagrophytes; assay: Antimicrobial activity against Trichophyton mentagrophytes 445 after 120 hrs by spectrophotometry; type: functional; details: Trichophyton mentagrophytes, 445, 120 h
[33] = Cytotoxicity against CHOK1 cells after 24 hrs by MTT assay; type: cell-based; details: Cricetulus griseus, CHO-K1, 24 h

Q: Which results are given for `CCCCCCCCCCCCCC[n+]1ccc2ccccc2c1`?
A: MIC [1]: 0.5 µM; MBC [2]: 1 µM; MIC [2]: 0.5 µM; MIC [3]: 0.5 µM; MBC [4]: 1 µM; MIC [4]: 0.5 µM; MIC [5]: 0.5 µM; MBC [6]: 1 µM; MIC [6]: 0.5 µM; MIC [7]: 0.5 µM; MBC [8]: 3.9 µM; MIC [8]: 0.5 µM; MIC [9]: 2 µM; MBC [10]: 3.9 µM; MIC [10]: 2 µM; MIC [11]: 3.9 µM; MBC [12]: 3.9 µM; MIC [12]: 3.9 µM; MIC [13]: 31 µM; MBC [14]: 31 µM; MIC [14]: 31 µM; MIC [15]: 63 µM; MBC [16]: 63 µM; MIC [16]: 63 µM; MIC [17]: 0.5 µM; MIC [18]: 7.8 µM; MFC [19]: 1 µM; MIC [19]: 0.5 µM; MIC [20]: 0.5 µM; MFC [21]: 1 µM; MIC [21]: 0.5 µM; MIC [22]: 0.5 µM; MFC [23]: 1 µM; MIC [23]: 0.5 µM; MIC [24]: 0.5 µM; MFC [25]: 3.9 µM; MIC [25]: 0.5 µM; MIC [26]: 3.9 µM; MFC [27]: 3.9 µM; MIC [27]: 3.9 µM; MFC [28]: 7.8 µM; MIC [28]: 7.8 µM; MIC [29]: 31 µM; MFC [30]: 250 µM; MIC [30]: 31 µM; MIC [31]: 3.9 µM; MFC [32]: 16 µM; MIC [32]: 3.9 µM; IC50 [33]: 9 µM

Q: What does the source list for `CCCCCCCCCCCCCCCC[n+]1ccc2ccccc2c1`?
A: MIC [1]: 1 µM; MBC [2]: 2 µM; MIC [2]: 1 µM; MIC [3]: 1 µM; MBC [4]: 2 µM; MIC [4]: 1 µM; MIC [5]: 0.5 µM; MBC [6]: 2 µM; MIC [6]: 0.5 µM; MIC [7]: 1 µM; MBC [8]: 3.9 µM; MIC [8]: 1 µM; MIC [9]: 3.9 µM; MBC [10]: 3.9 µM; MIC [10]: 3.9 µM; MIC [11]: 3.9 µM; MBC [12]: 7.8 µM; MIC [12]: 3.9 µM; MIC [13]: 7.8 µM; MBC [14]: 31 µM; MIC [14]: 7.8 µM; MIC [15]: 125 µM; MBC [16]: 125 µM; MIC [16]: 125 µM; MIC [17]: 2 µM; MIC [18]: 3.9 µM; MFC [19]: 2 µM; MIC [19]: 2 µM; MIC [20]: 2 µM; MFC [21]: 2 µM; MIC [21]: 2 µM; MIC [22]: 2 µM; MFC [23]: 2 µM; MIC [23]: 2 µM; MIC [24]: 2 µM; MFC [25]: 2 µM; MIC [25]: 2 µM; MIC [26]: 3.9 µM; MFC [27]: 3.9 µM; MIC [27]: 3.9 µM; MFC [28]: 3.9 µM; MIC [28]: 3.9 µM; MIC [29]: 16 µM; MFC [30]: 125 µM; MIC [30]: 16 µM; MIC [31]: 2 µM; MFC [32]: 7.8 µM; MIC [32]: 2 µM; IC50 [33]: 7 µM
